System: Mitochondria-located protein genes
Experiment: DNA chip mRNA expression in yeast, mitochondria-located protein genes (Table 2)
Assay type: cell-based, Saccharomyces cerevisiae S288C
Details: cells incubated two hours with the chemical substance
Summary of the method: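 Untreated cultures served as reference for log-phase S288C yeast given a growth-inhibiting, non-lethal toxicant dose for 2 h at 25° C. in YPD. Gene expression was measured on a whole-genome DNA chip from Cy3/Cy5-labeled cDNA.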

CCCCCCCCCCCCOS(=O)(=O)[O-].[Na+] [(18), sodium lauryl sulfate]
The level of expressed mRNA in the presence of chemical substance/The level of expressed mRNA in the absence of chemical substance (yeast gene YAL039C): 1.1 | The level of expressed mRNA in the presence of chemical substance/The level of expressed mRNA in the absence of chemical substance (yeast gene YBL022C): 0.7 | The level of expressed mRNA in the presence of chemical substance/The level of expressed mRNA in the absence of chemical substance (yeast gene YBL030C): 1.1 | The level of expressed mRNA in the presence of chemical substance/The level of expressed mRNA in the absence of chemical substance (yeast gene YBL038W): 1.9 | The level of expressed mRNA in the presence of chemical substance/The level of expressed mRNA in the absence of chemical substance (yeast gene YBL099W): 1.2 | The level of expressed mRNA in the presence of chemical substance/The level of expressed mRNA in the absence of chemical substance (yeast gene YBR003W): 1.3 | The level of expressed mRNA in the presence of chemical substance/The level of expressed mRNA in the absence of chemical substance (yeast gene YBR044C): 1.3 | The level of expressed mRNA in the presence of chemical substance/The level of expressed mRNA in the absence of chemical substance (yeast gene YBR091C): 1.0 | The level of expressed mRNA in the presence of chemical substance/The level of expressed mRNA in the absence of chemical substance (yeast gene YBR122C): 1.5 | The level of expressed mRNA in the presence of chemical substance/The level of expressed mRNA in the absence of chemical substance (yeast gene YBR185C): 1.3 | The level of expressed mRNA in the presence of chemical substance/The level of expressed mRNA in the absence of chemical substance (yeast gene YBR221C): 1.0 | The level of expressed mRNA in the presence of chemical substance/The level of expressed mRNA in the absence of chemical substance (yeast gene YBR251W): 1.4 | The level of expressed mRNA in the presence of chemical substance/The level of expressed mRNA in the absence of chemical substance (yeast gene YBR282W): 1.2 | The level of expressed mRNA in the presence of chemical substance/The level of expressed mRNA in the absence of chemical substance (yeast gene YCL057W): 1.1 | The level of expressed mRNA in the presence of chemical substance/The level of expressed mRNA in the absence of chemical substance (yeast gene YCR046C): 1.0 | The level of expressed mRNA in the presence of chemical substance/The level of expressed mRNA in the absence of chemical substance (yeast gene YCR083W): 1.3 | The level of expressed mRNA in the presence of chemical substance/The level of expressed mRNA in the absence of chemical substance (yeast gene YDL067C): 1.7 | The level of expressed mRNA in the presence of chemical substance/The level of expressed mRNA in the absence of chemical substance (yeast gene YDL181W): 1.4 | The level of expressed mRNA in the presence of chemical substance/The level of expressed mRNA in the absence of chemical substance (yeast gene YDL198C): 1.1 | The level of expressed mRNA in the presence of chemical substance/The level of expressed mRNA in the absence of chemical substance (yeast gene YDR079W): 1.3 | The level of expressed mRNA in the presence of chemical substance/The level of expressed mRNA in the absence of chemical substance (yeast gene YDR178W): 2.3 | The level of expressed mRNA in the presence of chemical substance/The level of expressed mRNA in the absence of chemical substance (yeast gene YDR231C): 1.3 | The level of expressed mRNA in the presence of chemical substance/The level of expressed mRNA in the absence of chemical substance (yeast gene YDR258C): 1.3 | The level of expressed mRNA in the presence of chemical substance/The level of expressed mRNA in the absence of chemical substance (yeast gene YDR298C): 1.6 | The level of expressed mRNA in the presence of chemical substance/The level of expressed mRNA in the absence of chemical substance (yeast gene YDR347W): 1.2 | The level of expressed mRNA in the presence of chemical substance/The level of expressed mRNA in the absence of chemical substance (yeast gene YDR377W): 2.5 | The level of expressed mRNA in the presence of chemical substance/The level of expressed mRNA in the absence of chemical substance (yeast gene YDR529C): 2.3 | The level of expressed mRNA in the presence of chemical substance/The level of expressed mRNA in the absence of chemical substance (yeast gene YEL024W): 1.5 | The level of expressed mRNA in the presence of chemical substance/The level of expressed mRNA in the absence of chemical substance (yeast gene YEL039C): 1.1 | The level of expressed mRNA in the presence of chemical substance/The level of expressed mRNA in the absence of chemical substance (yeast gene YER178W): 0.9 | The level of expressed mRNA in the presence of chemical substance/The level of expressed mRNA in the absence of chemical substance (yeast gene YFL016C): 0.9 | The level of expressed mRNA in the presence of chemical substance/The level of expressed mRNA in the absence of chemical substance (yeast gene YGL018C): 1.0 | The level of expressed mRNA in the presence of chemical substance/The level of expressed mRNA in the absence of chemical substance (yeast gene YGL187C): 2.4 | The level of expressed mRNA in the presence of chemical substance/The level of expressed mRNA in the absence of chemical substance (yeast gene YGL191W): 1.7 | The level of expressed mRNA in the presence of chemical substance/The level of expressed mRNA in the absence of chemical substance (yeast gene YGR008C): 4.2 | The level of expressed mRNA in the presence of chemical substance/The level of expressed mRNA in the absence of chemical substance (yeast gene YGR028W): 2.6 | The level of expressed mRNA in the presence of chemical substance/The level of expressed mRNA in the absence of chemical substance (yeast gene YGR062C): 1.1 | The level of expressed mRNA in the presence of chemical substance/The level of expressed mRNA in the absence of chemical substance (yeast gene YGR076C): 1.5 | The level of expressed mRNA in the presence of chemical substance/The level of expressed mRNA in the absence of chemical substance (yeast gene YGR082W): 0.8 | The level of expressed mRNA in the presence of chemical substance/The level of expressed mRNA in the absence of chemical substance (yeast gene YGR174C): 2.3 | The level of expressed mRNA in the presence of chemical substance/The level of expressed mRNA in the absence of chemical substance (yeast gene YGR244C): 3.1 | The level of expressed mRNA in the presence of chemical substance/The level of expressed mRNA in the absence of chemical substance (yeast gene YHR008C): 1.0 | The level of expressed mRNA in the presence of chemical substance/The level of expressed mRNA in the absence of chemical substance (yeast gene YIL155C): 1.4 | The level of expressed mRNA in the presence of chemical substance/The level of expressed mRNA in the absence of chemical substance (yeast gene YJL096W): 1.2 | The level of expressed mRNA in the presence of chemical substance/The level of expressed mRNA in the absence of chemical substance (yeast gene YJL102W): 1.1 | The level of expressed mRNA in the presence of chemical substance/The level of expressed mRNA in the absence of chemical substance (yeast gene YJL133W): 0.7 | The level of expressed mRNA in the presence of chemical substance/The level of expressed mRNA in the absence of chemical substance (yeast gene YJL166W): 4.0 | The level of expressed mRNA in the presence of chemical substance/The level of expressed mRNA in the absence of chemical substance (yeast gene YJL180C): 1.4 | The level of expressed mRNA in the presence of chemical substance/The level of expressed mRNA in the absence of chemical substance (yeast gene YJR045C): 0.9 | The level of expressed mRNA in the presence of chemical substance/The level of expressed mRNA in the absence of chemical substance (yeast gene YJR077C): 0.8

Source: patent publication US8192962B2, “Processes for detecting toxic substances” (Daikin Industries, Ltd., priority 2001, dated 2012)
